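Grown in 96-well plates, cells were treated for 48 hours with each compound at five concentrations. Insufficient inhibition: endpoint recorded as highest concentration tested. At the GI50, growth is halved. TGI denotes the concentration required for complete inhibition of growth.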
What was measured:
Assay in all cases: NCI-60 cell line screen, 48 h
[1] = test system: A549 NSCLC
[2] = test system: EKVX NSCLC
[3] = test system: HT29 colon
[4] = test system: K-562 leukemia
[5] = test system: OVCAR-5 ovarian
[6] = test system: RPMI-8226 leukemia
[7] = test system: SK-OV-3 ovarian
[8] = test system: SN12C renal
[9] = test system: U251 CNS
[10] = test system: HCT-116 colon

Compound | GI50 [1] | TGI [1] | GI50 [2] | TGI [2] | GI50 [3] | TGI [3] | GI50 [4] | TGI [4] | GI50 [5] | TGI [5] | GI50 [6] | TGI [6] | GI50 [7] | TGI [7] | GI50 [8] | TGI [8] | GI50 [9] | TGI [9] | GI50 [10] | TGI [10]
COc1cc2c3c(n(C)c(=O)c2cc1OC)-c1cc2c(cc1/C3=C\CCCCN)OCO2 | 6.26 µM | 27.4 µM | 18.4 µM | 57.2 µM | 7.45 µM | > 100 µM | 6220 nM | > 100 µM | 15500 nM | 35.4 µM | 4440 nM | 24.7 µM | 17.1 µM | 46.7 µM | 9.39 µM | 24.4 µM | 6040 nM | 21.6 µM | – | –
CC(=O)[CH-]C(=O)c1ccccc1.CC(=O)[CH-]C(=O)c1ccccc1.CCN(CC)CC[O-].CCN(CC)CC[O-].Cl.[Ti+4] | 27.9 µM | 98.6 µM | – | – | 24 µM | 59.6 µM | 37800 nM | > 100 µM | 59600 nM | > 100 µM | 38300 nM | > 100 µM | 32.6 µM | > 100 µM | 39.5 µM | > 100 µM | 25200 nM | > 100 µM | 27.2 µM | > 100 µM
O=C(CCCc1c[nH]c2ccccc12)NC1CC(=O)c2c(Br)sc(Br)c21 (stereo not drawn) | 33.4 µM | > 100 µM | 18.9 µM | 37.3 µM | 7.13 µM | 22 µM | 2010 nM | 5.56 µM | 16000 nM | 31.7 µM | 4370 nM | > 100 µM | 22.7 µM | 55.2 µM | 17.3 µM | 33 µM | 7290 nM | 19.9 µM | – | –
O=C1c2cc3c(cc2-c2c1c1cc(Cl)c(Cl)cc1c(=O)n2CCCn1ccnc1)OCO3 | < 0.01 µM | > 100 µM | 0.0553 µM | > 100 µM | < 0.01 µM | > 100 µM | 11.1 nM | 20.8 µM | 23.9 nM | > 100 µM | < 10 nM | 10.4 µM | < 0.01 µM | 0.0305 µM | – | – | < 10 nM | 11.6 µM | < 0.01 µM | 17.6 µM
CC(=O)O[C@H]1C(=O)[C@@]2(C)C([C@H](OC(=O)c3ccccc3)[C@]3(O)C[C@H](OC(=O)[C@H](O)[C@H](NC(=O)c4ccccc4)c4ccc(Cl)cc4)C(C)=C1C3(C)C)C1(OC(C)=O)CO[C@@H]1C[C@@H]2O (stereo partly drawn) | – | 24.4 µM | 0.204 µM | 40.6 µM | – | – | – | 10.9 µM | – | 0.0407 µM | – | 4.67 µM | – | – | – | – | – | – | – | –
Cc1ccc(-c2c(C#N)c(N)nc(N3CCOCC3)c2C#N)o1 | 57.1 µM | > 100 µM | 21.2 µM | > 100 µM | 30.1 µM | > 100 µM | 73800 nM | > 100 µM | 27400 nM | > 100 µM | 49800 nM | > 100 µM | – | – | 41.6 µM | > 100 µM | – | – | 33.5 µM | > 100 µM
OB([O][Hg][c]1ccccc1)[O][Hg][c]1ccccc1 | 1.83 µM | 4.64 µM | – | – | 0.384 µM | 1.75 µM | 234 nM | 4.96 µM | 1880 nM | 3.33 µM | 211 nM | 0.592 µM | 1.6 µM | 2.97 µM | 0.266 µM | 0.799 µM | 507 nM | 1.89 µM | 0.161 µM | 0.307 µM
COc1ccc(/C(=C/c2cc(OC)c(OC)c(OC)c2)[N+](=O)[O-])cc1 | 3 µM | 10.3 µM | 1.96 µM | 4.32 µM | 3.68 µM | 8.98 µM | 1710 nM | > 100 µM | 2010 nM | 4.09 µM | 1700 nM | 4.77 µM | 4.96 µM | 17 µM | 1.6 µM | 3.24 µM | 1580 nM | 3.05 µM | – | –
C1CCC([PH+](C2CCCCC2)C2CCCCC2[PH+](C2CCCCC2)C2CCCCC2)CC1.[Au].[CH-]1CCCCC1C1CCCC[N-]1 (stereo not drawn) | – | – | – | – | – | – | 229 nM | > 100 µM | 377 nM | 1.79 µM | 132 nM | > 100 µM | 0.275 µM | 1.14 µM | – | – | – | – | – | –
COc1cc2cc(Oc3ccc(NC(=O)Nc4cccc(C(F)(F)F)c4)cc3)c(C)nc2cc1OCCN1CCCCC1 | – | – | 1.51 µM | 2.92 µM | – | – | 802 nM | 3.11 µM | 1870 nM | 3.29 µM | – | – | 2.06 µM | 3.8 µM | 1.66 µM | 3.15 µM | – | – | – | –
O=C(O)CN(c1ccc(Cl)cc1)S(=O)(=O)c1ccccc1 | – | > 100 µM | – | > 100 µM | – | > 100 µM | – | > 100 µM | – | > 100 µM | – | > 100 µM | – | > 100 µM | – | > 100 µM | – | > 100 µM | – | –
ClC(=Nc1cccc2ccccc12)N(c1ccccc1)c1ccccc1 | – | > 100 µM | – | – | – | > 100 µM | – | > 100 µM | – | > 100 µM | – | 89.3 µM | – | > 100 µM | – | > 100 µM | – | > 100 µM | – | > 100 µM
CC1=C(C(=O)Nc2ccccc2)C(c2ccc3c(c2)OCO3)C(C(=O)Nc2ccccc2)=C(C)N1 | – | > 100 µM | – | > 100 µM | – | > 100 µM | – | 66 µM | – | – | – | 79.4 µM | – | > 100 µM | – | > 100 µM | – | – | – | –
COc1cc[nH]c1/C=C1\C(=O)Nc2ccc(F)c(C#C[C@@H](O)[C@@H](N)[C@@H](C)O)c21 | 0.681 µM | 3.13 µM | – | – | 0.448 µM | 1.49 µM | 651 nM | 3.44 µM | 673 nM | 5.14 µM | 683 nM | 1.83 µM | 0.744 µM | 9.65 µM | 0.51 µM | 8.38 µM | 445 nM | 2.61 µM | 0.323 µM | 2.89 µM
CC12OC(C(=O)C13CC3)C1C(=O)c3ccccc3C(=O)C12 (stereo not drawn) | 37.2 µM | > 100 µM | 4.48 µM | 38.4 µM | 48.7 µM | > 100 µM | 36800 nM | > 100 µM | 47400 nM | > 100 µM | – | – | 25.3 µM | 74.8 µM | – | – | – | – | 34 µM | > 100 µM
CCCCOC(=O)C(=O)C(CC(C(=O)Cc1ccccc1)c1ccccc1)C(=O)C=C(C)C (stereo not drawn) | – | > 100 µM | – | > 100 µM | – | > 100 µM | – | – | – | > 100 µM | – | – | – | > 100 µM | – | > 100 µM | – | > 100 µM | – | > 100 µM

Source: PubChem BioAssay (NCI)
